Data as given in patent US20160077079A1, “THE CHILDREN'S HOSPITAL OF PHILADELPHIA” (THE CHILDREN'S HOSPITAL OF PHILADELPHIA, priority 2013, published 2016).

Columns and labels:
[1] = tested on: NCI-H716; assay: GLP-1 secretion in NCI-H716 L-cells, GLP-1 concentration by ELISA; assay type: cell-based, human; settings: NCI-H716 cells pre-treated 48 hours with inhibitor
Excerpt: Glucagon-like peptide-1 (GLP-1) has numerous physiological functions, including enhancement of glucose-stimulated insulin secretion, stimulation of β-cell anti-apoptosis and proliferation and inhibition of glucagon secretion, food intake and gastric emptying. These antidiabetic properties of GLP-1 have generated intense interest in the use of this short peptide and its agonists for the treatment of patients with type 2 diabetes. A better understanding of the underlying mechanism of GLP-1 secretion may lead to novel approaches used for the treatment of type 2 diabetes. TCF7L2 is the most strongly associated locus with type 2 diabetes and has been known to bind with the promoter region of the proglucagon gene for many years. […] As such, we investigated if existing PARP-1 inhibitors, previously tested in oncology studies, could have a GLP-1 agonist effect. We leveraged the standard human L-cell line, NCI-H716, for GLP-1 secretion assessment to investigate this possible link. We pre-treated the cells for 48 hours with three different PARP-1 inhibitors, Olaparib, Rucaparib and Iniparib, with or without glucose stimulation (16.8 mM). We measured the resulting GLP-1 concentration using an ELISA kit (Millipore).

[2] = tested on: SNP rs7903146 region of TCF7L2 (HCT116 nuclear extracts); assay: SILAC oligo pull-down quantifying protein binding to the SNP rs7903146 oligonucleotide with and without insulin treatment; assay type: cell-based, human; settings: HCT116 cells, 1 uM insulin for 1 hour
Protocol: Human HCT 116 cells were cultured in DMEM (4.5 g/l glucose, 10% FCS, 100 U/mL penicillin and 100 íg/mL streptomycin). For insulin stimulation experiments, cells were treated with 1 uM insulin for 1 hour. For SILAC experiments, Cultures were grown according to standard cell-culture procedures in SILAC-light and SILAC-heavy labeled Dulbecco's Modified Eagle Medium (DMEM, ThermoFisher) supplied with 10% dialyzed fetal bovine serum (FBS), ^13C6-lysine and ^13C6-arginine. Cells were washed by cold phosphate-buffered saline (PBS) and harvested by scraping, centrifugation for 5 min at 5000 rpm at 4° C. 10^8 Cells were lysed in 250 ul low salt buffer (10 mM HEPES, 1.5 mM MgCl2, 10 mM KCl, 0.5% NP-40, proteasome inhibitor, phosphatase inhibitor, 10% glycerol, pH 7.9) by incubation on ice for 20 min with vortex 10 seconds per 5 minutes. The nuclei were separated from cytoplasmic fraction by centrifugation 10,000 rpm for 1 min at 4° C. The nuclei pellets were washed once by cold low salt buffer, harvested by centrifugation. […]
The sample was digested with trypsin and analyzed with nanoLC/MS/MS at the Penn Proteomics Core. […] The data were analyzed with Sequest (ThermoFinnigan, San Jose, Calif.; version SRF v. 5). […] The quantification of the SILAC peaks was performed with ProteolQ with customized modification so that the software can use the zoom scanned SLICA peaks for quantification.
To investigate dynamic binding of Parp-1, ATP-dependent RNA helicase A and Thrap3 for the SNP rs7903146 region, we used stable isotope labeling with amino acids in cell culture (SILAC) (Ong, Blagoev et al. 2002) to quantify the binding affinity changes between with and without insulin treatment.
The heavy cells were isotopically labeled in SILAC medium supplied with ^13C6-lysine and ^13C6-arginine and treated with insulin, while the light cells […] served as a control. […] With this approach, we quantified the relative protein abundances including Parp-1, ATP-dependent RNA helicase A and Thrap3 between treatment and without treatment of insulin.

[3] = absence of glucose, compared with glucose-elevated level
[4] = with glucose stimulation (16.8 mM)

Parp-1 binding to rs7903146 oligo, up-regulation upon insulin stimulation [2]	Thrap3 binding to rs7903146 oligo, increase upon insulin stimulation [2]	Molecule	GLP-1 secretion (GLP-1 concentration by ELISA) [1, 3]	GLP-1 secretion (GLP-1 concentration by ELISA) [1, 4]	ATP-dependent RNA helicase A binding to rs7903146 oligo, increase upon insulin stimulation [2]
–	–	CNCc1ccc(-c2[nH]c3cc(F)cc4c3c2CCNC4=O)cc1 [Rucaparib]	equal or greater level of GLP-1 secretion	elevated further	–
–	–	O=C(c1cc(Cc2n[nH]c(=O)c3ccccc23)ccc1F)N1CCN(C(=O)C2CC2)CC1 [Olaparib]	equal or greater level of GLP-1 secretion	elevated further	–
20%	7 fold	insulin	–	–	12 fold
–	–	NC(=O)c1ccc(I)c([N+](=O)[O-])c1 [Iniparib]	equal or greater level of GLP-1 secretion	elevated further	–
